Results taken from patent EP4692114A1, “CALCITONIN ANALOGUE, AND DERIVATIVE THEREOF AND USE THEREOF” (Hangzhou Sciwind Biosciences Co., Ltd., priority 2023, dated 2024).
*1 amine or outer side, *2 acyl side, *3 side chain or, on linkers, in order; H or OH if unused. Where a SMILES comes first, the peptide text is derived from it. The star is where a group is joined. C22 diacid = O=C(O)CCCCCCCCCCCCCCCCCCCCC(=O)*; C20 diacid = O=C(O)CCCCCCCCCCCCCCCCCCC(=O)*; C18 diacid = O=C(O)CCCCCCCCCCCCCCCCC(=O)*; γGlu = O=C(O)[C@H](CCC(=O)[*:2])N[*:1]; βAsp = O=C(O)[C@H](CC(=O)[*:2])N[*:1]; AEEA = NCCOCCOCC(=O)O

Tests used:
[1] = Heat accelerated stability assay under a neutral condition; type: physicochemical; details: pH about 7.4, 40°C; for Changes in characteristics or properties, 0d / Changes in characteristics or properties, 7d: 1 mg/mL, phosphate; for Concentration change (7d-0d)/%: Day 7 vs Day 0, reversed phase chromatography; for Purity Change% (7d-0d) / Purity Change% (26d-0d): purity from reversed phase chromatography-214 nm; for Purity Change% (7d-0d): Day 7 vs Day 0; for Purity Change% (26d-0d): Day 26 vs Day 0
Description: The lyophilized powder (1 mg/mL) of calcitonin analogues or derivatives prepared in accordance with the method of Example 1 were mixed with sodium dihydrogen phosphate (1.42 mg/mL) and dissolved in ultrapure water in the indicated mass-volume ratios. After adjusting pH to about 7.4 with hydrochloric acid/sodium hydroxide, the solution was filtered into a sterilized vial in a clean bench using a 0.22 µm sterile filter. The vial was then capped and placed into the stability test chamber at 40°C. Detections were made on Days 7 (7d) and 26 (26d), and during the assay, changes in the characteristics and properties of the polypeptides were observed and recorded. The sample was then centrifuged for 3 min at 10000 rpm at 4°C, and the supernatant was transferred to a liquid phase sample vial for detecting the concentration and purity of the polypeptides using liquid phase chromatography described as below, wherein the concentration of the polypeptide = peak area/injection volume/extinction coefficient/60×flow rate, and the purity of the polypeptide = target peak area/total peak area× 100%.
Conditions of the reversed phase chromatography Flow rate: 1.0 ml/min; Autosampler temperature: 15°C; Column temperature: 25°C; Detection wavelengths: 280 nm and 214 nm; Mobile phase A: 100% H2O+0.05% TFA; Mobile phase B: 100% ACN; and Gradient of elution listed in Table 4: Table 4. Listing of the gradient of elution in the liquid phase chromatography
Results were shown below in Tables 5, 6, and 7. A difference of more than 5% in content as compared with the initial value was typically assumed (for example, as prescribed by the Chinese Pharmacopeia (2020 Edition)) to be a significant change. Within a reasonable margin of error, a decrease of less than 1% from the initial value to the detected content is denoted as "no change" below. Table 5. Changes in characteristics or properties in the heat accelerated stability assay

[2] = biological target: T1, human amylin receptors (Homo sapiens, UniProt O60896+P30988); experiment: Luciferase assay of amylin (amylin receptor/CRE-luc cell line); type: cell-based; details: stably transfected amylin receptor/CRE-luc CHO cells (CHO-K1/Gal5/AMY3), 24 hours incubation, luciferase readout;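 note: agonist potency from luminescence of cAMP response element-driven luciferase, EC50 derived from a standard curve of signal versus compound concentration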
T1 sequence (P30988 25-474): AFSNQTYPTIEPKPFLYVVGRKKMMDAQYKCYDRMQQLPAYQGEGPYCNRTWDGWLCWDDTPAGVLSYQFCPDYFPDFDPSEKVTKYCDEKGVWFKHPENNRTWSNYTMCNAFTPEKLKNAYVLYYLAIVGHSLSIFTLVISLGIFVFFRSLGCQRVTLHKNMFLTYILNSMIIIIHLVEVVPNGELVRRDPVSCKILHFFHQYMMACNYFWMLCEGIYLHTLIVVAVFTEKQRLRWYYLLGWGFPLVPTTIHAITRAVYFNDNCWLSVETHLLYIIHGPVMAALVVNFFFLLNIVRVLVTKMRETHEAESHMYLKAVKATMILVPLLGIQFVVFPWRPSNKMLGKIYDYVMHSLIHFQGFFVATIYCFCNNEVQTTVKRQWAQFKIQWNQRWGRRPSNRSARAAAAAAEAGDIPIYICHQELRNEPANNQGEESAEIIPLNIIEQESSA
T1 sequence (O60896 24-148 partner): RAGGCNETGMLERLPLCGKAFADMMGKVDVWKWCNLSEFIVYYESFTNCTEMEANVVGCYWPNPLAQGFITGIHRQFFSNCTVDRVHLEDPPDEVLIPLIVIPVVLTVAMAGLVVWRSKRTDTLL
Description: The objective of this assay is to test the activity or potency of calcitonin analogues or derivatives on human amylin receptors in vitro using a luciferase assay.
Using the standard protocol, CHO-K1/Gal5/AMY3 cells (purchased from GenScript, with the calcitonin receptor and the receptor activity modifying peptide (RAMP) constructed already) were transfected with a plasmid containing a luciferase expression cassette driven by multiple copies of cAMP response elements (CREs). The cells were cultured in an F12 medium containing 200 ug/mL Zeocin, 2 ug/mL puromycin, 100 ug/mL hygromycin, and 400 ug/mL G418 to afford a stably transfected amylin receptor/CRE-luc cell line.
To each well of a white 96-well plate was added 50 µL of the tested sample solution at a respective concentration.
The stably transfected amylin receptor/CRE-luc CHO cells were resuspended in the growth medium at a certain density, and 50 µL of the cell suspension was added at a density of about 20000 cells per well to the white 96-well plate containing the tested sample solution. After incubation of 24 hours at 37°C and 5% CO2, 100 µL of a Luciferase substrate was added to each well, incubated for 3 minutes, and finally was tested for luminescence on SpectraMax L (Molecular Devices) with the software SoftMax Pro 7.0.3 GxP. A standard curve was plotted using the fluorescent intensities for calculation of EC50.

Row | SMILES | Changes in characteristics or properties, 0d [1] | Changes in characteristics or properties, 7d [1] | Concentration change (7d-0d)/% [1] | Purity Change% (7d-0d) [1] | Purity Change% (26d-0d) [1] | EC50 [2]
1 | CC(C)C[C@H](NC(=O)[C@H](CCCNC(=N)N)NC(=O)CNC(=O)[C@H](CC(C)C)NC(=O)[C@@H](NC(=O)[C@H](C)NC(=O)[C@@H](NC(=O)[C@H](CO)NC(=O)[C@H](CC(C)C)NC(=O)[C@H](CCC(N)=O)NC(=O)[C@H](CO)NC(=O)[C@H](C)NC(=O)C[C@H](NC(=O)CCCCCCCCCCCCCCCCCCC(=O)O)C(=O)O)[C@@H](C)O)C(C)C)C(=O)N[C@@H](CO)C(=O)N[C@@H](CC(=O)O)C(=O)N[C@@H](CCC(=O)O)C(=O)N[C@@H](CC(C)C)C(=O)N[C@@H](Cc1c[nH]cn1)C(=O)N[C@@H](CCCNC(=N)N)C(=O)N[C@@H](CC(C)C)C(=O)N[C@@H](CCC(N)=O)C(=O)N[C@@H](CC(=O)O)C(=O)N[C@@H](Cc1ccc(O)cc1)C(=O)N1CCC[C@H]1C(=O)N[C@@H](CCCNC(=N)N)C(=O)N[C@H](C(=O)N[C@@H](CC(=O)O)C(=O)N[C@H](C(=O)NCC(=O)N[C@@H](CO)C(=O)NCC(=O)N[C@@H](CO)C(=O)N1CCC[C@H]1C(N)=O)C(C)C)[C@@H](C)O [M43] ({C20 diacid-βAsp}-ASQLSTAVLGRLSDELHRLQDYPRTDVGSGSP-NH2) | Clear | Clear | No change (a decrease of less than 1% from the initial value to the detected content is denoted as "no change") | No change (a decrease of less than 1% from the initial value to the detected content is denoted as "no change") | -1.96% | 0.017 nM
2 | CC(C)C[C@H](NC(=O)[C@H](CCCNC(=N)N)NC(=O)CNC(=O)[C@H](CC(C)C)NC(=O)[C@@H](NC(=O)[C@H](C)NC(=O)[C@@H](NC(=O)[C@H](CO)NC(=O)[C@H](CC(C)C)NC(=O)[C@H](CCC(N)=O)NC(=O)[C@H](CO)NC(=O)[C@H](C)NC(=O)[C@H](CC(=O)O)NC(=O)CCCCCCCCCCCCCCCCC(=O)O)[C@@H](C)O)C(C)C)C(=O)N[C@@H](CO)C(=O)N[C@@H](CC(=O)O)C(=O)N[C@@H](CCC(=O)O)C(=O)N[C@@H](CC(C)C)C(=O)N[C@@H](Cc1c[nH]cn1)C(=O)N[C@@H](CCCNC(=N)N)C(=O)N[C@@H](CC(C)C)C(=O)N[C@@H](CCC(N)=O)C(=O)N[C@@H](CC(=O)O)C(=O)N[C@@H](Cc1ccc(O)cc1)C(=O)N1CCC[C@H]1C(=O)N[C@@H](CCCNC(=N)N)C(=O)N[C@H](C(=O)N[C@@H](CC(=O)O)C(=O)N[C@H](C(=O)NCC(=O)N[C@@H](CO)C(=O)NCC(=O)N[C@@H](CO)C(=O)N1CCC[C@H]1C(N)=O)C(C)C)[C@@H](C)O [M44] ({C18 diacid}-DASQLSTAVLGRLSDELHRLQDYPRTDVGSGSP-NH2) | Clear | Clear | -2.285% | -1.15% | -3.76% | 0.016 nM
3 | CC(C)C[C@H](NC(=O)[C@H](CCCNC(=N)N)NC(=O)CNC(=O)[C@H](CC(C)C)NC(=O)[C@@H](NC(=O)[C@H](C)NC(=O)[C@@H](NC(=O)[C@H](CO)NC(=O)[C@H](CC(C)C)NC(=O)[C@H](CCC(N)=O)NC(=O)[C@H](CO)NC(=O)[C@H](C)NC(=O)[C@H](CCC(=O)O)NC(=O)CCCCCCCCCCCCCCCCC(=O)O)[C@@H](C)O)C(C)C)C(=O)N[C@@H](CO)C(=O)N[C@@H](CC(=O)O)C(=O)N[C@@H](CCC(=O)O)C(=O)N[C@@H](CC(C)C)C(=O)N[C@@H](Cc1c[nH]cn1)C(=O)N[C@@H](CCCNC(=N)N)C(=O)N[C@@H](CC(C)C)C(=O)N[C@@H](CCC(N)=O)C(=O)N[C@@H](CC(=O)O)C(=O)N[C@@H](Cc1ccc(O)cc1)C(=O)N1CCC[C@H]1C(=O)N[C@@H](CCCNC(=N)N)C(=O)N[C@H](C(=O)N[C@@H](CC(=O)O)C(=O)N[C@H](C(=O)NCC(=O)N[C@@H](CO)C(=O)NCC(=O)N[C@@H](CO)C(=O)N1CCC[C@H]1C(N)=O)C(C)C)[C@@H](C)O [M42] ({C18 diacid}-EASQLSTAVLGRLSDELHRLQDYPRTDVGSGSP-NH2) | Clear | Clear | -3.344% | No change (a decrease of less than 1% from the initial value to the detected content is denoted as "no change") | -2.93% | 0.016 nM
4 | CC(C)C[C@H](NC(=O)[C@H](CCCNC(=N)N)NC(=O)CNC(=O)[C@H](CC(C)C)NC(=O)[C@@H](NC(=O)[C@H](C)NC(=O)[C@@H](NC(=O)[C@H](CO)NC(=O)[C@H](CC(C)C)NC(=O)[C@H](CCC(N)=O)NC(=O)[C@H](CO)NC(=O)[C@H](C)NC(=O)CC[C@H](NC(=O)CCCCCCCCCCCCCCCCCCCCC(=O)O)C(=O)O)[C@@H](C)O)C(C)C)C(=O)N[C@@H](CO)C(=O)N[C@@H](CCC(=O)O)C(=O)N[C@@H](CCC(=O)O)C(=O)N[C@@H](CC(C)C)C(=O)N[C@@H](Cc1c[nH]cn1)C(=O)N[C@@H](CCCNC(=N)N)C(=O)N[C@@H](CC(C)C)C(=O)N[C@@H](CCC(N)=O)C(=O)N[C@@H](CC(=O)O)C(=O)N[C@@H](Cc1ccc(O)cc1)C(=O)N1CCC[C@H]1C(=O)N[C@@H](CCCNC(=N)N)C(=O)N[C@H](C(=O)N[C@@H](CC(=O)O)C(=O)N[C@H](C(=O)NCC(=O)N[C@@H](CO)C(=O)NCC(=O)N[C@@H](CO)C(=O)N1CCC[C@H]1C(N)=O)C(C)C)[C@@H](C)O [M65] ({C22 diacid-γGlu}-ASQLSTAVLGRLSEELHRLQDYPRTDVGSGSP-NH2) |  |  |  |  |  | 0.017 nM
5 | CC(C)C[C@H](NC(=O)[C@H](CCCNC(=N)N)NC(=O)CNC(=O)[C@H](CC(C)C)NC(=O)[C@@H](NC(=O)[C@H](C)NC(=O)[C@@H](NC(=O)[C@H](CO)NC(=O)[C@H](CC(C)C)NC(=O)[C@H](CCC(N)=O)NC(=O)[C@H](CO)NC(=O)[C@H](C)NC(=O)COCCOCCNC(=O)COCCOCCNC(=O)COCCOCCNC(=O)COCCOCCNC(=O)CC[C@H](NC(=O)CCCCCCCCCCCCCCCCCCC(=O)O)C(=O)O)[C@@H](C)O)C(C)C)C(=O)N[C@@H](CO)C(=O)N[C@@H](CCC(=O)O)C(=O)N[C@@H](CCC(=O)O)C(=O)N[C@@H](CC(C)C)C(=O)N[C@@H](Cc1c[nH]cn1)C(=O)N[C@@H](CCCNC(=N)N)C(=O)N[C@@H](CC(C)C)C(=O)N[C@@H](CCC(N)=O)C(=O)N[C@@H](CC(=O)O)C(=O)N[C@@H](Cc1ccc(O)cc1)C(=O)N1CCC[C@H]1C(=O)N[C@@H](CCCNC(=N)N)C(=O)N[C@H](C(=O)N[C@@H](CC(=O)O)C(=O)N[C@H](C(=O)NCC(=O)N[C@@H](CO)C(=O)NCC(=O)N[C@@H](CO)C(=O)N1CCC[C@H]1C(N)=O)C(C)C)[C@@H](C)O [M63] ({C20 diacid-γGlu-AEEA-AEEA-AEEA-AEEA}-ASQLSTAVLGRLSEELHRLQDYPRTDVGSGSP-NH2) |  |  |  |  |  | 0.037 nM
